Source: ChEMBL document CHEMBL1781873, “Synthesis and antibacterial property of pyrrolopyrano quinolinones and pyrroloquinolines” (2011)
Values after ≈ are worked out from the molar mass of the structure shown. Active and inactive are the calls of the source. The rule behind the calls is not given here.

Experiments:
Escherichia coli [1] = assay: Inhibition of Escherichia coli DNA gyrase -mediated DNA relaxation using pBR322 DNA as substrate at […] after 1 hrs by agarose gel electrophoresis
Bacillus subtilis [2] = assay: Antibacterial activity against Bacillus subtilis at 20 ug after 24 hrs by disc diffusion assay; type: functional; conditions: read-out: IZ
Pseudomonas aeruginosa [3] = assay: Antibacterial activity against Pseudomonas aeruginosa at 15 ug after 24 hrs by disc diffusion assay; type: functional; conditions: read-out: IZ
Klebsiella pneumoniae [4] = assay: Antibacterial activity against Klebsiella pneumoniae at 20 ug after 24 hrs by disc diffusion assay; type: functional; conditions: read-out: IZ
Salmonella typhi [5] = assay: Antibacterial activity against Salmonella typhi at 15 ug after 24 hrs by disc diffusion assay; type: functional, Salmonella enterica subsp. enterica serovar Typhi; conditions: Salmonella enterica, read-out: IZ
Escherichia coli [6] = assay: Antibacterial activity against Escherichia coli at 10 ug after 24 hrs by disc diffusion assay; type: functional; conditions: read-out: IZ
Klebsiella pneumoniae [7] = assay: Antibacterial activity against Klebsiella pneumoniae at 10 ug after 24 hrs by disc diffusion assay; type: functional; conditions: read-out: IZ
Escherichia coli [8] = assay: Antibacterial activity against Escherichia coli at 5 ug after 24 hrs by disc diffusion assay; type: functional; conditions: read-out: IZ
Bacillus subtilis [9] = assay: Antibacterial activity against Bacillus subtilis at 10 ug after 24 hrs by disc diffusion assay; type: functional; conditions: read-out: IZ
Salmonella typhi [10] = assay: Antibacterial activity against Salmonella typhi at 20 ug after 24 hrs by disc diffusion assay; type: functional, Salmonella enterica subsp. enterica serovar Typhi; conditions: Salmonella enterica, read-out: IZ
Pseudomonas aeruginosa [11] = assay: Antibacterial activity against Pseudomonas aeruginosa at 25 ug after 24 hrs by disc diffusion assay; type: functional; conditions: read-out: IZ
Escherichia coli [12] = assay: Antibacterial activity against Escherichia coli at 20 ug after 24 hrs by disc diffusion assay; type: functional; conditions: read-out: IZ
Staphylococcus aureus [13] = assay: Antibacterial activity against Staphylococcus aureus at 5 ug after 24 hrs by disc diffusion assay; type: functional; conditions: read-out: IZ
Klebsiella pneumoniae [14] = assay: Antibacterial activity against Klebsiella pneumoniae at 25 ug after 24 hrs by disc diffusion assay; type: functional; conditions: read-out: IZ
Salmonella typhi [15] = assay: Antibacterial activity against Salmonella typhi at 5 ug after 24 hrs by disc diffusion assay; type: functional, Salmonella enterica subsp. enterica serovar Typhi; conditions: Salmonella enterica, read-out: IZ
Bacillus subtilis [16] = assay: Antibacterial activity against Bacillus subtilis after 18 to 20 hrs by broth micro dilution assay; type: functional
Klebsiella pneumoniae [17] = assay: Antibacterial activity against Klebsiella pneumoniae at 15 ug after 24 hrs by disc diffusion assay; type: functional; conditions: read-out: IZ
Escherichia coli [18] = assay: Antibacterial activity against Escherichia coli after 18 to 20 hrs by broth micro dilution assay; type: functional
Bacillus subtilis [19] = assay: Antibacterial activity against Bacillus subtilis at 15 ug after 24 hrs by disc diffusion assay; type: functional; conditions: read-out: IZ
Pseudomonas aeruginosa [20] = assay: Antibacterial activity against Pseudomonas aeruginosa at 10 ug after 24 hrs by disc diffusion assay; type: functional; conditions: read-out: IZ
Staphylococcus aureus [21] = assay: Antibacterial activity against Staphylococcus aureus after 18 to 20 hrs by broth micro dilution assay; type: functional
Escherichia coli [22] = assay: Inhibition of DNA gyrase mRNA expression in Escherichia coli measured up to 24 hrs by RT-PCR; type: functional, organism-based
Klebsiella pneumoniae [23] = assay: Antibacterial activity against Klebsiella pneumoniae after 18 to 20 hrs by broth micro dilution assay; type: functional
Escherichia coli [24] = assay: Antibacterial activity against Escherichia coli at 25 ug after 24 hrs by disc diffusion assay; type: functional; conditions: read-out: IZ
Escherichia coli [25] = assay: Inhibition of Escherichia coli DNA gyrase assessed as inhibition of DNA supercoiling activity using pBR322 DNA as substrate at […] after 3 hrs by agarose gel electrophoresis
Staphylococcus aureus [26] = assay: Antibacterial activity against Staphylococcus aureus at 15 ug after 24 hrs by disc diffusion assay; type: functional; conditions: read-out: IZ
Pseudomonas aeruginosa [27] = assay: Antibacterial activity against Pseudomonas aeruginosa at 20 ug after 24 hrs by disc diffusion assay; type: functional; conditions: read-out: IZ
Escherichia coli [28] = assay: Antibacterial activity against Escherichia coli at 15 ug after 24 hrs by disc diffusion assay; type: functional; conditions: read-out: IZ
Pseudomonas aeruginosa [29] = assay: Antibacterial activity against Pseudomonas aeruginosa after 18 to 20 hrs by broth micro dilution assay; type: functional
Klebsiella pneumoniae [30] = assay: Antibacterial activity against Klebsiella pneumoniae at 5 ug after 24 hrs by disc diffusion assay; type: functional; conditions: read-out: IZ
Staphylococcus aureus [31] = assay: Antibacterial activity against Staphylococcus aureus at 20 ug after 24 hrs by disc diffusion assay; type: functional; conditions: read-out: IZ
Pseudomonas aeruginosa [32] = assay: Antibacterial activity against Pseudomonas aeruginosa at 5 ug after 24 hrs by disc diffusion assay; type: functional; conditions: read-out: IZ
Salmonella typhi [33] = assay: Antibacterial activity against Salmonella typhi at 25 ug after 24 hrs by disc diffusion assay; type: functional, Salmonella enterica subsp. enterica serovar Typhi; conditions: Salmonella enterica, read-out: IZ
Salmonella typhi [34] = assay: Antibacterial activity against Salmonella typhi at 10 ug after 24 hrs by disc diffusion assay; type: functional, Salmonella enterica subsp. enterica serovar Typhi; conditions: Salmonella enterica, read-out: IZ
Salmonella typhi [35] = assay: Antibacterial activity against Salmonella typhi after 18 to 20 hrs by broth micro dilution assay; type: functional, Salmonella enterica subsp. enterica serovar Typhi; conditions: Salmonella enterica
Staphylococcus aureus [36] = assay: Antibacterial activity against Staphylococcus aureus at 25 ug after 24 hrs by disc diffusion assay; type: functional; conditions: read-out: IZ
Bacillus subtilis [37] = assay: Antibacterial activity against Bacillus subtilis at 25 ug after 24 hrs by disc diffusion assay; type: functional; conditions: read-out: IZ
Staphylococcus aureus [38] = assay: Antibacterial activity against Staphylococcus aureus at 10 ug after 24 hrs by disc diffusion assay; type: functional; conditions: read-out: IZ
Bacillus subtilis [39] = assay: Antibacterial activity against Bacillus subtilis at 5 ug after 24 hrs by disc diffusion assay; conditions: read-out: IZ

CCC1[C@H]2c3c(n(C)c4ccccc4c3=O)OC(C)(C)[C@@H]2CN1OS(=O)(=O)c1ccc(C)cc1 (mixture of isomers)
inhibition (Escherichia coli [1]): Active
zone of inhibition at 20 µg/disc (Bacillus subtilis [2]): 10 mm
zone of inhibition at 15 µg/disc (Pseudomonas aeruginosa [3]): 28 mm
zone of inhibition at 20 µg/disc (Klebsiella pneumoniae [4]): 24 mm
zone of inhibition at 15 µg/disc (Salmonella typhi [5]): 18 mm
zone of inhibition at 10 µg/disc (Escherichia coli [6]): 14 mm
zone of inhibition at 10 µg/disc (Klebsiella pneumoniae [7]): 14 mm
zone of inhibition at 5 µg/disc (Escherichia coli [8]): 12 mm
zone of inhibition at 10 µg/disc (Bacillus subtilis [9]): 8 mm
zone of inhibition at 20 µg/disc (Salmonella typhi [10]): 22 mm
zone of inhibition at 25 µg/disc (Pseudomonas aeruginosa [11]): 36 mm
zone of inhibition at 20 µg/disc (Escherichia coli [12]): 22 mm
zone of inhibition at 5 µg/disc (Staphylococcus aureus [13]): 20 mm
zone of inhibition at 25 µg/disc (Klebsiella pneumoniae [14]): 26 mm
zone of inhibition at 5 µg/disc (Salmonella typhi [15]): 10 mm
MIC50 (Bacillus subtilis [16]): 0.5 µg/mL
MIC90 (Bacillus subtilis [16]): 0.5 µg/mL
zone of inhibition at 15 µg/disc (Klebsiella pneumoniae [17]): 16 mm
MIC50 (Escherichia coli [18]): 0.5 µg/mL
MIC90 (Escherichia coli [18]): 0.5 µg/mL
zone of inhibition at 15 µg/disc (Bacillus subtilis [19]): 9 mm
zone of inhibition at 10 µg/disc (Pseudomonas aeruginosa [20]): 26 mm
MIC50 (Staphylococcus aureus [21]): 0.5 µg/mL
MIC90 (Staphylococcus aureus [21]): 0.5 µg/mL
inhibition of gyrase mRNA expression (active/not active) (Escherichia coli [22]): inactive
MIC50 (Klebsiella pneumoniae [23]): 0.5 µg/mL
MIC90 (Klebsiella pneumoniae [23]): 0.5 µg/mL
zone of inhibition at 25 µg/disc (Escherichia coli [24]): 23 mm
DNA gyrase inhibition (active/inactive) (Escherichia coli [25]): Active
zone of inhibition at 15 µg/disc (Staphylococcus aureus [26]): 26 mm
zone of inhibition at 20 µg/disc (Pseudomonas aeruginosa [27]): 34 mm
zone of inhibition at 15 µg/disc (Escherichia coli [28]): 16 mm
MIC50 (Pseudomonas aeruginosa [29]): 0.5 µg/mL
MIC90 (Pseudomonas aeruginosa [29]): 0.5 µg/mL
zone of inhibition at 5 µg/disc (Klebsiella pneumoniae [30]): 10 mm
zone of inhibition at 20 µg/disc (Staphylococcus aureus [31]): 30 mm
zone of inhibition at 5 µg/disc (Pseudomonas aeruginosa [32]): 24 mm
zone of inhibition at 25 µg/disc (Salmonella typhi [33]): 24 mm
zone of inhibition at 10 µg/disc (Salmonella typhi [34]): 16 mm
MIC50 (Salmonella typhi [35]): 0.5 µg/mL
MIC90 (Salmonella typhi [35]): 0.5 µg/mL
zone of inhibition at 25 µg/disc (Staphylococcus aureus [36]): 36 mm
zone of inhibition at 25 µg/disc (Bacillus subtilis [37]): 11 mm
zone of inhibition at 10 µg/disc (Staphylococcus aureus [38]): 24 mm

O=C(O)c1cn(C2CC2)c2cc(N3CCNCC3)c(F)cc2c1=O [CIPROFLOXACIN]
inhibition (Escherichia coli [1]): Active
zone of inhibition at 20 µg/disc (Bacillus subtilis [2]): 10 mm
zone of inhibition at 15 µg/disc (Pseudomonas aeruginosa [3]): 16 mm
zone of inhibition at 20 µg/disc (Klebsiella pneumoniae [4]): 34 mm
zone of inhibition at 15 µg/disc (Salmonella typhi [5]): 18 mm
zone of inhibition at 10 µg/disc (Escherichia coli [6]): 16 mm
zone of inhibition at 10 µg/disc (Klebsiella pneumoniae [7]): 26 mm
zone of inhibition at 10 µg/disc (Bacillus subtilis [9]): 7 mm
zone of inhibition at 20 µg/disc (Salmonella typhi [10]): 22 mm
zone of inhibition at 25 µg/disc (Pseudomonas aeruginosa [11]): 23 mm
zone of inhibition at 5 µg/disc (Staphylococcus aureus [13]): 22 mm
zone of inhibition at 25 µg/disc (Klebsiella pneumoniae [14]): 36 mm
zone of inhibition at 5 µg/disc (Salmonella typhi [15]): 14 mm
MIC50 (Bacillus subtilis [16]): 0.5 µg/mL (≈ 1.51 µM)
MIC90 (Bacillus subtilis [16]): 1 µg/mL (≈ 3.02 µM)
zone of inhibition at 15 µg/disc (Klebsiella pneumoniae [17]): 30 mm
MIC90 (Escherichia coli [18]): 1 µg/mL (≈ 3.02 µM)
zone of inhibition at 15 µg/disc (Bacillus subtilis [19]): 9 mm
zone of inhibition at 10 µg/disc (Pseudomonas aeruginosa [20]): 14 mm
MIC50 (Staphylococcus aureus [21]): 0.5 µg/mL (≈ 1.51 µM)
MIC90 (Staphylococcus aureus [21]): 1 µg/mL (≈ 3.02 µM)
MIC50 (Klebsiella pneumoniae [23]): 0.5 µg/mL (≈ 1.51 µM)
MIC90 (Klebsiella pneumoniae [23]): 1 µg/mL (≈ 3.02 µM)
DNA gyrase inhibition (active/inactive) (Escherichia coli [25]): Active
zone of inhibition at 15 µg/disc (Staphylococcus aureus [26]): 26 mm
zone of inhibition at 20 µg/disc (Pseudomonas aeruginosa [27]): 20 mm
zone of inhibition at 15 µg/disc (Escherichia coli [28]): 18 mm
MIC50 (Pseudomonas aeruginosa [29]): 0.5 µg/mL (≈ 1.51 µM)
MIC90 (Pseudomonas aeruginosa [29]): 1 µg/mL (≈ 3.02 µM)
zone of inhibition at 5 µg/disc (Klebsiella pneumoniae [30]): 24 mm
zone of inhibition at 20 µg/disc (Staphylococcus aureus [31]): 30 mm
zone of inhibition at 5 µg/disc (Pseudomonas aeruginosa [32]): 12 mm
zone of inhibition at 25 µg/disc (Salmonella typhi [33]): 24 mm
zone of inhibition at 10 µg/disc (Salmonella typhi [34]): 16 mm
zone of inhibition at 5 µg/disc (Bacillus subtilis [39]): 6 mm
MIC50 (Salmonella typhi [35]): 0.5 µg/mL (≈ 1.51 µM)
MIC90 (Salmonella typhi [35]): 1 µg/mL (≈ 3.02 µM)
zone of inhibition at 25 µg/disc (Staphylococcus aureus [36]): 36 mm
zone of inhibition at 25 µg/disc (Bacillus subtilis [37]): 12 mm
zone of inhibition at 10 µg/disc (Staphylococcus aureus [38]): 24 mm
